Experimental findings from US11001563B2, “SSAO inhibitor” (SHANDONG DANHONG PHARMACEUTICAL CO., LTD., priority 2017, dated 2021) are described below.

One data set has as its target VAP-1/SSAO (Homo sapiens (Human), UniProt Q16853). In words: VAP-1 cell activity assay (HUVEC or CHO cells transfected with VAP-1/pCDNA (3.1) plasmid, Amplex Red). The format is cell-based. Conditions: HUVEC or CHO cells transfected with VAP-1 plasmid; read-out: VAP-1/SSAO Cellular Inhibitory Activity IC50. As for the experimental part: The inhibition of the sample on VAP-1 cell activity was measured by using an Amplex® Red Monoamine Oxidase kit (Invitrogen #A12214).
The cultured HUVEC or CHO cells were plated into a 6-well plate at a density of 0.8 M/well, placed in a 37° C., 5% CO2 incubator for incubation for 24 hours, and then the cells was transferred with a Lipo2000 reagent and a VAP-1/pCDNA (3.1) plasmid, and liquid was changed for the cells after 5 hours (Lipo2000 was toxic to the cells); after 24 hours, the cells were digested and plated into 384-well plates with a density of 25 μl, 10000 cells/well, and liquid was replaced with medium without FBS for the cells after 6-7 hours, and the cell plates were incubated overnight at 37° C. in a 5% CO2 incubator.
1) Dilution of the compound: serial dilution in 4× gradient was carried out with 100% DMSO, 10 points were diluted, the starting concentration of the to-be-tested compound was 0.5 mM (final concentration was 1 μM); 100 nl of compound solution was transferred to a 384-well cell assay plate with ECHO. Negative control wells: 100 nl of DMSO; background control wells: 100 nl DMSO+25 μL medium.
2) The reaction was carried out in the dark at room temperature for 30 min.
3) Preparation of Amplex Red reagent+HRP+benzylamine substrate working solution: Amplex Red reagent+HRP+benzylamine substrate working solution (200 μM Amplex Red reagent+1 U/mL HRP+1 mM benzylamine): 45 μl of 20 mM Amplex Red reagent mother solution, 22.5 μl of 200 U/ml horseradish peroxidase (HRP) mother solution and 45 ul of 100 mM benzylamine were tanken and added to 4.3875 ml of 1× reaction buffer.
4) After 30 min, 25 μl of the substrate working solution was added to a 384-well plate, and a final concentration was 100 μM Amplex Red reagent+0.5 U/mL HRP+0.5 mM benzylamine, respectively.
5) The reaction was carried out in the dark at room temperature for 60 minutes, and the fluorescence value was measured by Envision: the excitation wave was 535 nm, and the emission wave was 590 nm.
6) Inhibition rate calculation formula: % inhibition rate=(1−(test hole minus background−positive control well minus background)/(negative control well minus background-positive control well minus background))*100
7) The data were analyzed with Prism. The IC50 of the sample against VAP-1 cells was calculated.

In another data set the target is hERG potassium channel (Homo sapiens (Human), UniProt Q12809). Kind of data set: Inhibition test of hERG potassium ion channel (automatic patch clamp, CHO-hERG cells). It is filed as cell-based. As for the experimental part:
The effect of the to-be-tested compound on the potassium ion channel of hERG was detected by a fully automatic patch clamp method.
The cells stably expressing hERG potassium channel used in the experiment were obtained from CHO-hERE of Aviva Biosciences, and CHO-hERG was cultured in 5% CO2 at 37° C.
CHO-hERG cells prepared for the experiment were cultured for at least two days, and the cell density reached 75% or more. Prior to the start of the experiment, cells were digested with TrypLE and then resuspended in extracellular fluid to collect the cells.
The to-be-tested compound and the positive control Amitriptyline were dissolved in DMSO to a certain concentration of the stock solution, and then diluted according to different gradients, and finally added to the extracellular fluid in a certain ratio, and diluted to a concentration to be measured. Visual inspection was performed to see if there was any precipitation before the start of the experiment. Finally, the concentration of DMSO in the to-be-tested solution and the positive control Amitriptyline should not exceed 0.3%.
The clamping potential was kept at −80 mv, first a voltage stimulation of −50 mv was given for 80 ms to record the cell leakage current value, and then was depolarized to +20 mv to be maintained for 4800 ms, the channel of hERG was open, and then repolarized to −50 mv to be maintained 5000 ms, hERG tail current was led out and recorded, and finally, the voltage was returned to the clamping potential of −80 mv to be maintained for 3100 ms. The above voltage stimulation was repeated once every 15000 ms.
hERG QPatch^HTX experiment was performed at room temperature. A whole cell protocol, a voltage stimulation protocol and a compound detection protocol were established on the software of QPatch Assay Software 5.2 (Sophion Bioscience).
First, 30 repeated set voltage stimulations were performed, which was the baseline area for subsequent analysis, followed by the addition of 5 μl of extracellular fluid, repeated for three times. The concentration of each compound added in sequence was repeated three times in a volume of 5 μl. The cells were incubated for at least 5 min at each test concentration. During the entire recording process, the indicators needed to meet the data analysis acceptance criteria. If the standard was not met, the cells would not be included in the analysis scope, and the compounds would be retested. The above recording process was automatically operated by Qpatch analysis software. […]
In each complete current record, based on the percentage of peak current in the negative control, the percent inhibition of the concentration of each compound can be calculated. […]

Data set [1] deals with CCl4-induced chronic liver fibrosis. In words: Oral CCl4-induced chronic liver fibrosis male C57BL/6 model. The format is in vivo, C57BL/6 mice. As to conditions: oral daily for 28 days, in words. Here is the method:
The therapeutic effect of compounds on an oral CCl4-induced chronic liver fibrosis male C57BL/6 model was tested. Male C57BL/6 mice, 7-8 weeks old; Experimental method: Male C57BL/6 mice were orally administered from the day CCl4 was put for modeling, and administered daily. Continuous administration was conducted for 28 days. The animals were fasted for at least 6 hours on the next day after the last administration. Animal weight was measured during euthanasia and all animals were euthanized under the guidance of the KCl Animal Euthanasia SOP. Non-anticoagulant venous blood of mice was collected from the ocular venous plexus. The whole blood was allowed to stand at room temperature for 30 minutes, and centrifuged at 5000 rpm for 5 minutes, and the serum was separated and placed in a 1.5 ml EP tube and stored at -80° C. After the whole body of the animal was perfused with hypothermic saline, the liver was taken and subjected to tissue gross image acquisition. The left lobe of the liver was divided into 4 equal parts and put into 4 tissue cryotubes for liquid nitrogen freezing, and then transferred to -80 OC for storage. The rest of the liver tissue was fixed in 10% neutral formalin fixative. […] HE staining was subjected to double-blind score by two pathological readers, and the area of hepatic fibrosis was analyzed for sirius-red stained sections by digital pathology.

Chain of hERG potassium channel (Q12809 whole entry): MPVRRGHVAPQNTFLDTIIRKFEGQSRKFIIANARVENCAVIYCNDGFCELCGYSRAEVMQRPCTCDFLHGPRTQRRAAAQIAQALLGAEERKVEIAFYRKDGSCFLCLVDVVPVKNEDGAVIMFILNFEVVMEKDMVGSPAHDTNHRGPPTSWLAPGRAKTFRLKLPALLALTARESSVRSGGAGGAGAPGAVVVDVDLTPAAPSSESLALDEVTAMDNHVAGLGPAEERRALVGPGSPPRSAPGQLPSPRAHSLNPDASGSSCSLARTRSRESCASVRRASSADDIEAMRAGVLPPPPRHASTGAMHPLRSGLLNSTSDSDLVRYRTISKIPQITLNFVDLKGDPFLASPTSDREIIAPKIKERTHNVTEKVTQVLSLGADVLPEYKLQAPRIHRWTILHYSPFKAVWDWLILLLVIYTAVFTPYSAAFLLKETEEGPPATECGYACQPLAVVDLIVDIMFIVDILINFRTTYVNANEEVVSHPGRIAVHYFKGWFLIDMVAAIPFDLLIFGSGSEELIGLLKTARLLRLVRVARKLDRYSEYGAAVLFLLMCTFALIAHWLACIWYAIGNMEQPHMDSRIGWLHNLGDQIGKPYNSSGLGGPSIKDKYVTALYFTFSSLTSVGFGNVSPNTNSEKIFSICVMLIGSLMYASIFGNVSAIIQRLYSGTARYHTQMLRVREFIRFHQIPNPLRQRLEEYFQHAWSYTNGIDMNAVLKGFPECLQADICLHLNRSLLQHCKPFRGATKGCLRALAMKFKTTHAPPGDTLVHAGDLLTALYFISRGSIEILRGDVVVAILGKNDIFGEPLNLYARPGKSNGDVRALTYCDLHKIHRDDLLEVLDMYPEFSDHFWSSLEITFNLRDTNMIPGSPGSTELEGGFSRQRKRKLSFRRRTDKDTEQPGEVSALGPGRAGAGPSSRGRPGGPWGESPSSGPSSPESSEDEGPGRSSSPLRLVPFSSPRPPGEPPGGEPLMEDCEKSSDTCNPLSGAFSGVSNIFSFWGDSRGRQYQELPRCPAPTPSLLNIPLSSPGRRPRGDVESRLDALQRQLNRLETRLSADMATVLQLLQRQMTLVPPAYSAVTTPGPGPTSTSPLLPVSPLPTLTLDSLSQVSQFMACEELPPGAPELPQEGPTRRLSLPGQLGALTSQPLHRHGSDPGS
Chain of VAP-1/SSAO (Q16853 whole entry): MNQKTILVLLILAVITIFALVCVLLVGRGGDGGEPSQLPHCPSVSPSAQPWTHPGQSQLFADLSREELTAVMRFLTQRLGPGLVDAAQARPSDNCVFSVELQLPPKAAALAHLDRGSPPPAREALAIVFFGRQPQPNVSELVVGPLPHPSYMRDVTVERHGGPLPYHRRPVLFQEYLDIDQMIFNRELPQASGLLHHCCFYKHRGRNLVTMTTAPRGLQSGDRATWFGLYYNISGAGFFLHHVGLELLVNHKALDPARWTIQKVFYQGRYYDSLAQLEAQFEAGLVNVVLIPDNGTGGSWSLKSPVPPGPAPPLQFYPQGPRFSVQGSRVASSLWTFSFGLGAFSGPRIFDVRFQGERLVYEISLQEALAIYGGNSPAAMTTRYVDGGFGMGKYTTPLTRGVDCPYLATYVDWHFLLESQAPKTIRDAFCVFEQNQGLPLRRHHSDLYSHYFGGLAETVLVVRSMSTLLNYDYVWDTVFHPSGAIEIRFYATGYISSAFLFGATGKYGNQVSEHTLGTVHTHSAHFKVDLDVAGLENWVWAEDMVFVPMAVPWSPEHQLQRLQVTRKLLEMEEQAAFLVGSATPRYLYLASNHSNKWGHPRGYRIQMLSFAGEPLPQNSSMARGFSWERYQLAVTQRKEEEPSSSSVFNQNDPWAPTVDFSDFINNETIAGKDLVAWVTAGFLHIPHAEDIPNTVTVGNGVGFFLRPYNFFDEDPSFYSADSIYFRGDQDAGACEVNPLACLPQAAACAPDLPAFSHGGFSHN

As to `Cl.Cn1nc(-c2ccc(OC/C(=C/F)CN)cc2)nc1C(F)F` [WX126], at VAP-1/SSAO, the IC50 worked out at 0.3 nM. This compound also displayed an IC50 against hERG potassium channel (QPatch whole cell patch clamp, CHO-hERG, 0.24-30.00 μM) above 30000 nM. The “Inhibition of hERG potassium current (in words)” value at hERG potassium channel (conclusion statement) is reported as “weak inhibition”. In data set [1], the “Effect on liver fibrosis (Sirius-Red staining)” value is listed as “obvious improvement effect” and the “Effect on liver injury (HE staining score)” value is listed as “obvious improvement effect”.
